Like-named read-outs stand apart in the source and are kept apart here.
Tests used:
Assay in all cases: Kinase inhibitor library screening, PrestoBlue cell viability, 1 or 10 μM, 72 h
[1] = system: IGR37-XP cells (Vemurafenib-resistant); settings: for Cell viability in kinase inhibitor library screening, IGR37 XP, 1μΜ: in %
[2] = system: A375-GP cells (Dabrafenib-resistant)
[3] = system: 501Mel-XP cells (Vemurafenib-resistant); settings: for Cell viability in kinase inhibitor library screening, 501Mel XP, 1μΜ / Cell viability in kinase inhibitor library screening, 501Mel XP, 10μΜ: in %
[4] = system: 501Mel-GP cells (Dabrafenib-resistant); settings: for Cell viability in kinase inhibitor library screening, 501Mel GP, 1μΜ / Cell viability in kinase inhibitor library screening, 501Mel GP, 10μΜ: in %
[5] = system: IGR37-GP cells (Dabrafenib-resistant); settings: for Cell viability in kinase inhibitor library screening, IGR37 GP, 1μΜ: in %
IGR37 cells (parental) = system: IGR37 cells (parental)
A375 cells (parental) = system: A375 cells (parental)
[6] = system: A375-XP cells (Vemurafenib-resistant)
501Mel cells (parental) = settings: for Cell viability in kinase inhibitor library screening, 501Mel Parental, 1μΜ / Cell viability in kinase inhibitor library screening, 501Mel Parental, 10μΜ: in %
Procedure, shortened: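 Cells are treated with each inhibitor at 1 or 10 μM, incubated 72 h, then PrestoBlue reagent is added and the plate is read. Data are normalised to untreated cells.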

## CCCCCCCCCCCCc1ccc(S(=O)(=O)Nc2nncs2)cc1 [PHT-427]
[1]; IGR37 XP, 10μΜ, 72 h
  cell viability (kinase inhibitor library screening): 79.8%
[2]; A375 GP, 1μΜ, 72 h
  cell viability (kinase inhibitor library screening): 107.5%
[2]; A375 GP, 10μΜ, 72 h
  cell viability (kinase inhibitor library screening): 93.5%
[3]; 501Mel XP, 10μΜ, 72 h
  cell viability (kinase inhibitor library screening): 85.4%
[4]; 501Mel GP, 1μΜ, 72 h
  cell viability (kinase inhibitor library screening): 115.7%
[4]; 501Mel GP, 10μΜ, 72 h
  cell viability (kinase inhibitor library screening): 95.0%
[5]; IGR37 GP, 1μΜ, 72 h
  cell viability (kinase inhibitor library screening): 95.0%
[5]; IGR37 GP, 10μΜ, 72 h
  cell viability (kinase inhibitor library screening): 98.8%
IGR37 cells (parental); IGR37 Parental, 10μΜ, 72 h
  cell viability (kinase inhibitor library screening): 110.3%
A375 cells (parental); A375 Parental, 10μΜ, 72 h
  cell viability (kinase inhibitor library screening): 98.4%
[6]; A375 XP, 1μΜ, 72 h
  cell viability (kinase inhibitor library screening): 106.9%
[6]; A375 XP, 10μΜ, 72 h
  cell viability (kinase inhibitor library screening): 100.2%
501Mel cells (parental); 501Mel Parental, 1μΜ, 72 h
  cell viability (kinase inhibitor library screening): 99.9%
501Mel cells (parental); 501Mel Parental, 10μΜ, 72 h
  cell viability (kinase inhibitor library screening): 96.2%

## Oc1cccc(-c2nc(N3CCOCC3)c3oc4ncccc4c3n2)c1 [PI-103]
[1]; Homo sapiens, IGR-37, 72 h, read-out: cell viability, IGR37 XP, 1μΜ
  viability at 1 µM: 80.5%
[1]; Homo sapiens, IGR-37, 72 h, read-out: cell viability, IGR37 XP, 10μΜ
  viability at 10 µM: 0.328%
[2]; Homo sapiens, A-375, 72 h, read-out: cell viability, A375 GP, 1μΜ
  viability at 1 µM: 55.6%
[2]; Homo sapiens, A-375, 72 h, read-out: cell viability, A375 GP, 10μΜ
  viability at 10 µM: 20.2%
[3]; Homo sapiens, 72 h, read-out: cell viability, 501Mel XP, 1μΜ
  viability at 1 µM: 13.4%
[3]; Homo sapiens, 72 h, read-out: cell viability, 501Mel XP, 10μΜ
  viability at 10 µM: -0.0754%
[4]; Homo sapiens, 72 h, read-out: cell viability, 501Mel GP, 1μΜ
  viability at 1 µM: 20%
[4]; Homo sapiens, 72 h, read-out: cell viability, 501Mel GP, 10μΜ
  viability at 10 µM: 3.4%
[5]; Homo sapiens, IGR-37, 72 h, read-out: cell viability, IGR37 GP, 1μΜ
  viability at 1 µM: 87.6%
[5]; Homo sapiens, IGR-37, 72 h, read-out: cell viability, IGR37 GP, 10μΜ
  viability at 10 µM: 3.8%
IGR37 cells (parental); Homo sapiens, IGR-37, 72 h, read-out: cell viability, IGR37 Parental, 1μΜ
  viability at 1 µM: 76.3%
IGR37 cells (parental); Homo sapiens, IGR-37, 72 h, read-out: cell viability, IGR37 Parental, 10μΜ
  viability at 10 µM: 10.6%
A375 cells (parental); Homo sapiens, A-375, 72 h, read-out: cell viability, A375 Parental, 1μΜ
  viability at 1 µM: 61.4%
A375 cells (parental); Homo sapiens, A-375, 72 h, read-out: cell viability, A375 Parental, 10μΜ
  viability at 10 µM: 24.2%
[6]; Homo sapiens, A-375, 72 h, read-out: cell viability, A375 XP, 1μΜ
  viability at 1 µM: 49.4%
[6]; Homo sapiens, A-375, 72 h, read-out: cell viability, A375 XP, 10μΜ
  viability at 10 µM: 20.8%
501Mel cells (parental); Homo sapiens, 72 h, read-out: cell viability, 501Mel Parental, 1μΜ
  viability at 1 µM: 36.3%
501Mel cells (parental); Homo sapiens, 72 h, read-out: cell viability, 501Mel Parental, 10μΜ
  viability at 10 µM: 1.1%

## COc1ccc2c(c1OC)N=C(NC(=O)c1cccnc1)N1CCN=C21 [PIK-90]
[1]; IGR37 XP, 10μΜ, 72 h
  Cell viability in kinase inhibitor library screening, IGR37 XP, 10μΜ: 19.4%
[1]; IGR37 XP, 1μΜ, 72 h
  Cell viability in kinase inhibitor library screening, IGR37 XP, 1μΜ: 85.5
[2]; A375 GP, 1μΜ, 72 h
  Cell viability in kinase inhibitor library screening, A375 GP, 1μΜ: 90.1
[2]; A375 GP, 10μΜ, 72 h
  Cell viability in kinase inhibitor library screening, A375 GP, 10μΜ: 52.7
[3]; 501Mel XP, 1μΜ, 72 h
  Cell viability in kinase inhibitor library screening, 501Mel XP, 1μΜ: 85.8
[3]; 501Mel XP, 10μΜ, 72 h
  Cell viability in kinase inhibitor library screening, 501Mel XP, 10μΜ: 43.2
[4]; 501Mel GP, 1μΜ, 72 h
  Cell viability in kinase inhibitor library screening, 501Mel GP, 1μΜ: 98.4
[4]; 501Mel GP, 10μΜ, 72 h
  Cell viability in kinase inhibitor library screening, 501Mel GP, 10μΜ: 50.5
[5]; IGR37 GP, 10μΜ, 72 h
  Cell viability in kinase inhibitor library screening, IGR37 GP, 10μΜ: 60.2%
[5]; IGR37 GP, 1μΜ, 72 h
  Cell viability in kinase inhibitor library screening, IGR37 GP, 1μΜ: 89.1
IGR37 cells (parental); IGR37 Parental, 10μΜ, 72 h, in %
  Cell viability in kinase inhibitor library screening, IGR37 Parental, 10μΜ: 82.3
A375 cells (parental); A375 Parental, 10μΜ, 72 h
  Cell viability in kinase inhibitor library screening, A375 Parental, 10μΜ: 58.0
A375 cells (parental); A375 Parental, 1μΜ, 72 h
  Cell viability in kinase inhibitor library screening, A375 Parental, 1μΜ: 94.8
[6]; A375 XP, 1μΜ, 72 h
  Cell viability in kinase inhibitor library screening, A375 XP, 1μΜ: 91.5
[6]; A375 XP, 10μΜ, 72 h
  Cell viability in kinase inhibitor library screening, A375 XP, 10μΜ: 58.7
501Mel cells (parental); 501Mel Parental, 1μΜ, 72 h
  Cell viability in kinase inhibitor library screening, 501Mel Parental, 1μΜ: 97.1
501Mel cells (parental); 501Mel Parental, 10μΜ, 72 h
  Cell viability in kinase inhibitor library screening, 501Mel Parental, 10μΜ: 71.7

## CC(=O)Nc1nc(C)c(-c2ccc(Cl)c(S(=O)(=O)NCCO)c2)s1 [PIK-93]
[1]
  Cell viability in kinase inhibitor library screening, IGR37 XP, 10μΜ: 27.5%
  Cell viability in kinase inhibitor library screening, IGR37 XP, 1μΜ: 84.1
[2]
  Cell viability in kinase inhibitor library screening, A375 GP, 1μΜ: 97.8
  Cell viability in kinase inhibitor library screening, A375 GP, 10μΜ: 37.8
[3]
  Cell viability in kinase inhibitor library screening, 501Mel XP, 1μΜ: 90.7
  Cell viability in kinase inhibitor library screening, 501Mel XP, 10μΜ: 10.6
[4]
  Cell viability in kinase inhibitor library screening, 501Mel GP, 1μΜ: 98.2
  Cell viability in kinase inhibitor library screening, 501Mel GP, 10μΜ: 25.1
[5]
  Cell viability in kinase inhibitor library screening, IGR37 GP, 10μΜ: 59.9%
  Cell viability in kinase inhibitor library screening, IGR37 GP, 1μΜ: 91.0
IGR37 cells (parental); in %
  Cell viability in kinase inhibitor library screening, IGR37 Parental, 1μΜ: 96.9
  Cell viability in kinase inhibitor library screening, IGR37 Parental, 10μΜ: 72.6
A375 cells (parental)
  Cell viability in kinase inhibitor library screening, A375 Parental, 1μΜ: 97.3
  Cell viability in kinase inhibitor library screening, A375 Parental, 10μΜ: 47.7
[6]
  Cell viability in kinase inhibitor library screening, A375 XP, 1μΜ: 88.7
  Cell viability in kinase inhibitor library screening, A375 XP, 10μΜ: 36.0
501Mel cells (parental)
  Cell viability in kinase inhibitor library screening, 501Mel Parental, 1μΜ: 88.1
  Cell viability in kinase inhibitor library screening, 501Mel Parental, 10μΜ: 25.0
